Results published in ChEMBL document CHEMBL1158272, “Novel antiplatelet constituents from formosan moraceous plants” (J Nat Prod, 1996).
Values after ≈ are worked out from the molar mass of the structure shown.

Legend:
[1] = Antiplatelet activity against rabbit platelets assessed as arachidonic acid-induced platelet aggregation at 300 uM by turbidimetric method; type: functional, Oryctolagus cuniculus
[2] = Antiplatelet activity against rabbit platelets assessed as collagen-induced platelet aggregation at 300 uM by turbidimetric method; type: functional, Oryctolagus cuniculus
[3] = Antiplatelet activity against rabbit platelets assessed as platelet-activating facto-induced platelet aggregation at 300 uM by turbidimetric method; type: functional, Oryctolagus cuniculus
[4] = Antiplatelet activity against rabbit platelets assessed as thrombin-induced platelet aggregation at 300 uM by turbidimetric method; type: functional, Oryctolagus cuniculus
[5] = Antiplatelet activity against rabbit platelets assessed as arachidonic acid-induced platelet aggregation by turbidimetric method; type: functional, cell-based; settings: Oryctolagus cuniculus
[6] = Antiplatelet activity against rabbit platelets assessed as collagen-induced platelet aggregation by turbidimetric method; type: functional, cell-based; settings: Oryctolagus cuniculus
[7] = Antiplatelet activity against rabbit platelets assessed as arachidonic acid-induced platelet aggregation at 20 uM by turbidimetric method; type: functional, Oryctolagus cuniculus
[8] = Antiplatelet activity against rabbit platelets assessed as collagen-induced platelet aggregation at 20 uM by turbidimetric method; type: functional, Oryctolagus cuniculus
[9] = Antiplatelet activity against rabbit platelets assessed as platelet-activating facto-induced platelet aggregation at 20 uM by turbidimetric method; type: functional, Oryctolagus cuniculus
[10] = Antiplatelet activity against rabbit platelets assessed as thrombin-induced platelet aggregation at 20 uM by turbidimetric method; type: functional, Oryctolagus cuniculus
[11] = Antiplatelet activity against human platelets in platelet rich plasma assessed as adrenaline-induced platelet aggregation at 50 uM pretreated 3 mins before adrenaline challenge by turbidimetric method; type: functional
[12] = Antiplatelet activity against rabbit platelets assessed as arachidonic acid-induced platelet aggregation at 50 uM by turbidimetric method; type: functional, Oryctolagus cuniculus
[13] = Antiplatelet activity against rabbit platelets assessed as collagen-induced platelet aggregation at 50 uM by turbidimetric method; type: functional, Oryctolagus cuniculus
[14] = Antiplatelet activity against rabbit platelets assessed as platelet-activating facto-induced platelet aggregation at 50 uM by turbidimetric method; type: functional, Oryctolagus cuniculus
[15] = Antiplatelet activity against rabbit platelets assessed as thrombin-induced platelet aggregation at 50 uM by turbidimetric method; type: functional, Oryctolagus cuniculus
[16] = Inhibition of ram seminal vesicle cyclooxygenase pretreated 2 mins before arachidonate substrate addition; type: tissue-based, Ovis aries
[17] = Antiplatelet activity against human platelets in platelet rich plasma assessed as adrenaline-induced platelet aggregation at 450 uM pretreated 3 mins before adrenaline challenge by turbidimetric method; type: functional
[18] = Antiplatelet activity against rabbit platelets assessed as collagen-induced platelet aggregation at 60 uM by turbidimetric method; type: functional, Oryctolagus cuniculus
[19] = Antiplatelet activity against rabbit platelets assessed as platelet-activating facto-induced platelet aggregation at 60 uM by turbidimetric method; type: functional, Oryctolagus cuniculus
[20] = Antiplatelet activity against rabbit platelets assessed as arachidonic acid-induced platelet aggregation at 15 uM by turbidimetric method; type: functional, Oryctolagus cuniculus
[21] = Antiplatelet activity against rabbit platelets assessed as collagen-induced platelet aggregation at 15 uM by turbidimetric method; type: functional, Oryctolagus cuniculus
[22] = Antiplatelet activity against rabbit platelets assessed as platelet-activating facto-induced platelet aggregation by turbidimetric method; type: functional, cell-based; settings: Oryctolagus cuniculus
[23] = Antiplatelet activity against human platelets in platelet rich plasma assessed as adrenaline-induced platelet aggregation at 300 uM pretreated 3 mins before adrenaline challenge by turbidimetric method; type: functional
[24] = Antiplatelet activity against rabbit platelets assessed as arachidonic acid-induced platelet aggregation at 100 uM by turbidimetric method; type: functional, Oryctolagus cuniculus
[25] = Antiplatelet activity against rabbit platelets assessed as platelet-activating facto-induced platelet aggregation at 100 uM by turbidimetric method; type: functional, Oryctolagus cuniculus
[26] = Antiplatelet activity against rabbit platelets assessed as collagen-induced platelet aggregation at 100 uM by turbidimetric method; type: functional, Oryctolagus cuniculus
[27] = Antiplatelet activity against rabbit platelets assessed as thrombin-induced platelet aggregation at 100 uM by turbidimetric method; type: functional, Oryctolagus cuniculus
[28] = Antiplatelet activity against rabbit platelets assessed as arachidonic acid-induced platelet aggregation at <100 uM by turbidimetric method; type: functional, Oryctolagus cuniculus
[29] = Antiplatelet activity against rabbit platelets assessed as collagen-induced platelet aggregation at <100 uM by turbidimetric method; type: functional, Oryctolagus cuniculus
[30] = Antiplatelet activity against rabbit platelets assessed as platelet-activating facto-induced platelet aggregation at <100 uM by turbidimetric method; type: functional, Oryctolagus cuniculus
[31] = Antiplatelet activity against rabbit platelets assessed as thrombin-induced platelet aggregation at <100 uM by turbidimetric method; type: functional, Oryctolagus cuniculus
[32] = Antiplatelet activity against human platelets in platelet rich plasma assessed as adrenaline-induced platelet aggregation at 150 uM pretreated 3 mins before adrenaline challenge by turbidimetric method; type: functional
[33] = Antiplatelet activity against human platelets in platelet rich plasma assessed as adrenaline-induced platelet aggregation at 100 uM pretreated 3 mins before adrenaline challenge by turbidimetric method; type: functional
[34] = Antiplatelet activity against rabbit platelets assessed as arachidonic acid-induced platelet aggregation at 30 uM by turbidimetric method; type: functional, Oryctolagus cuniculus
[35] = Antiplatelet activity against rabbit platelets assessed as collagen-induced platelet aggregation at 30 uM by turbidimetric method; type: functional, Oryctolagus cuniculus
[36] = Antiplatelet activity against rabbit platelets assessed as platelet-activating facto-induced platelet aggregation at 30 uM by turbidimetric method; type: functional, Oryctolagus cuniculus

`COc1cc(OC)c([C@@H]2CC(=O)c3c(O)cc(OC)c(CC=C(C)C)c3O2)c(OC)c1` gave an Activity [1] of 81.5%, an Activity [2] of 68.9% and an Activity [3] of 84.5%. For the same molecule, the Activity [4] was 85.7%.

With `COc1cc(O)c2c(c1)O[C@H](c1c(OC)cc(OC)cc1OC)CC2=O` the Activity [1] was 27.9%, the Activity [2] was 66.1% and the Activity [3] was 81%. It also gave an Activity [4] of 83.1%.

Molecule `COc1cc(O)c2c(c1)O[C@H](c1ccc(O)cc1O)CC2=O` [ARTOCARPANONE] has an Activity [1] of 0%, an Activity [2] of 1.1% and an Activity [3] of 38.6%. It also gave an Activity [4] of 90.2%, an IC50 [5] of 41 µM and an IC50 [6] of 90.7 µM.

Work on `COc1cc(O)c2c(=O)cc(-c3ccc(O)cc3O)oc2c1CC=C(C)C` [ARTOCARPETIN A] yielded an Activity [1] of 61.8%, an Activity [2] of 46.8% and an Activity [3] of 59.8%. The Activity [4] was 80.4%.

Molecule `COc1cc(O)c2c(=O)cc(-c3ccc(O)cc3O)oc2c1` [ARTOCARPETIN] has an Activity [1] of 0%, an Activity [2] of 73.8% and an Activity [3] of 85.7%. It also gave an Activity [4] of 88.2% and an IC50 [5] of 95.9 µM.

For `COc1cc2oc(-c3ccc(O)cc3O)c(CC=C(C)C)c(=O)c2c(O)c1/C=C/C(C)C` [ARTOCARPIN], the Activity [7] was 54.8%, the Activity [8] was 84% and the Activity [9] was 76%. The Activity [10] was 87.3%.

With `CC(=O)Oc1ccccc1C(=O)O` [ASPIRIN] the Activity [11] was 39.6%, the Activity [12] was 0% and the Activity [13] was 85.4%. It also gave an Activity [14] of 90.5% and an Activity [15] of 91.9%.

For `CC(C)=CCc1cc2c(cc1O)O/C(=C\c1ccc(O)c(O)c1)C2=O` [BROUSSOAURONE A], the IC50 [16] was 22.7 µg/mL (≈ 67.1 µM), the Activity [1] was 0% and the Activity [2] was 0%. The Activity [3] was 89.5%, the Activity [4] was 93.7% and the IC50 [5] was 15.4 µM.

Molecule `CC(C)=CCc1cc(C(=O)/C=C/c2ccc(O)c(O)c2)c(O)cc1O` [BROUSSOCHALCONE A] has an Activity [17] of 40.1%, an IC50 [16] of 19.4 µg/mL (≈ 57 µM) and an Activity [18] of 0%. It also gave an Activity [19] of 67.8%, an Activity [20] of 0% and an Activity [21] of 55.1%. The IC50 [5] was 6.8 µM, the IC50 [6] was 22.4 µM and the IC50 [22] was 119 µM. It also gave an Activity [23] of 74%.

`CC(=O)Oc1cc(O)c(C(=O)/C=C/c2ccc(OC(C)=O)c(OC(C)=O)c2)cc1CC=C(C)C` [BROUSSOCHALCONE TRIACETATE] showed an Activity [1] of 9.3%, an Activity [2] of 23.1% and an Activity [3] of 0%. The Activity [4] was 88.4%, the Activity [24] was 9.6% and the Activity [25] was 82.1%. For the same molecule, the IC50 [5] was 91.7 µM.

Work on `CC(C)=CCc1c([C@@H]2CCc3ccc(O)cc3O2)cc2c(c1O)OC(C)(C)C(O)C2O` (stereo partly specified) [BROUSSOFLAVAN A] yielded an Activity [1] of 0%, an Activity [2] of 0% and an Activity [3] of 87.9%. For the same molecule, the Activity [4] was 92% and the IC50 [5] was 86.7 µM.

In the case of `CC(C)=CCc1c(-c2oc3c(CC=C(C)C)c(O)cc(O)c3c(=O)c2O)cc(O)c(O)c1CC=C(C)C` [BROUSSOFLAVONOL E], the Activity [24] is reported as 0%, the Activity [26] is reported as 0% and the Activity [25] is reported as 86.4%. It also gave an Activity [27] of 91.8% and an IC50 [5] of 39.9 µM.

`CC(C)=CCc1cc(-c2oc3c(CC=C(C)C)c(O)cc(O)c3c(=O)c2O)ccc1O` [BROUSSOFLAVONOL F] gave an IC50 [16] of 17.5 µg/mL (≈ 41.4 µM), an Activity [24] of 0% and an Activity [26] of 0%. The Activity [25] was 84.8%, the Activity [27] was 93.1% and the IC50 [5] was 16.9 µM.

For `COc1ccc2c(c1)OC(C=C(C)C)c1c-2oc2cc(O)c(/C=C/C(C)C)c(O)c2c1=O` (stereo unspecified) [CYCLOARTOCARPIN A], the Activity [7] was 39.5%, the Activity [8] was 60.9% and the Activity [9] was 86.5%. The Activity [10] was 89.9%, the IC50 [5] was 18.5 µM and the IC50 [6] was 23.7 µM.

In the case of `CC(=O)Oc1cc2c(cc1OC(C)=O)-c1oc3c(CC=C(C)C)c4c(c(O)c3c(=O)c1C(C=C(C)C)O2)C=CC(C)(C)O4` (stereo unspecified) [CYCLOHETERPHYLLIN DIACETATE], the Activity [28] is reported as 83.4%, the Activity [29] is reported as 4.9% and the Activity [30] is reported as 86%. The Activity [31] was 91.3%.

With `CC(=O)Oc1cc2c(cc1OC(C)=O)-c1oc3c(CC=C(C)C)c4c(c(OC(C)=O)c3c(=O)c1C(C=C(C)C)O2)C=CC(C)(C)O4` (stereo unspecified) [CYCLOHETERPHYLLIN PERACETATE] the Activity [28] was 74%, the Activity [29] was 73% and the Activity [30] was 78.3%. The Activity [31] was 91%.

Work on `CC(C)=CCc1c2c(c(O)c3c(=O)c4c(oc13)-c1cc(O)c(O)cc1OC4C=C(C)C)C=CC(C)(C)O2` (stereo unspecified) [CYCLOHETERPHYLLIN] yielded an Activity [32] of 55.1%, an Activity [33] of 61.6% and an IC50 [16] of 26.1 µg/mL (≈ 51.9 µM). For the same molecule, the Activity [1] was 0%, the Activity [2] was 33.8% and the Activity [3] was 4.5%. It also gave an Activity [4] of 82.4%, an IC50 [5] of 10.9 µM and an Activity [23] of 35.5%.

In the case of `CC(C)=CCc1c(-c2cc(O)c(O)cc2O)oc2c(CC=C(C)C)c3c(c(O)c2c1=O)C=CC(C)(C)O3` [HETEROPHYLLIN], the Activity [24] is reported as 0%, the Activity [26] is reported as 0% and the Activity [25] is reported as 32%. For the same molecule, the Activity [27] was 80.2%, the IC50 [5] was 49.8 µM and the IC50 [6] was 48.7 µM.

`COc1ccc2c(c1)c(CC(=O)O)c(C)n2C(=O)c1ccc(Cl)cc1` [INDOMETHACIN] gave an IC50 [16] of 0.7 µg/mL (≈ 1.96 µM).

Work on `CC(C)=CCc1cc([C@@H]2CCc3ccc(O)cc3O2)c(CC=C(C)C)c(O)c1O` [KAZINOL A] yielded an Activity [34] of 0%, an Activity [35] of 0% and an Activity [36] of 65.8%. It also gave an IC50 [5] of 11.4 µM, an IC50 [6] of 20.7 µM and an IC50 [22] of 54.6 µM.

For `CC(C)=CCc1c([C@@H]2CCc3ccc(O)cc3O2)cc2c(c1O)OC(C)(C)C=C2` [KAZINOL B], the Activity [32] was 27.6%, the Activity [33] was 27.9% and the IC50 [16] was 155.3 µg/mL (≈ 396 µM). For the same molecule, the Activity [12] was 0%, the Activity [13] was 4% and the Activity [14] was 42.6%. It also gave an Activity [15] of 79.8%, an IC50 [5] of 32.6 µM and an Activity [23] of 23.1%.
